Assay [1] is described as follows: Inhibition of PAF mediated human eosinophil chemotaxis.
The nature of assay [2]: Inhibition of C5a mediated human eosinophil chemotaxis.
Assay [3] can be described thus: Inhibition of Eotaxin mediated by human eosinophil chemotaxis.
Assay [4] can be described thus: Inhibition of PDE4D.

Drawing on BindingDB's records for doi:10.1016/j.bmcl.2005.10.026 (Pfizer, 2005), this text covers IC50 for one compound.

The term IC50 denotes the point on the concentration scale where inhibition reaches its midpoint. Lower therefore signals greater potency.

Consider `C[C@@H](NC(=O)c1cccnc1Oc1ccc(F)cc1)c1cccs1` [(R)-2-(4-fluorophenoxy)-N-(1-(thiophen-2-yl)ethyl)nicotinamide], for which the 50% inhibitory concentration (IC50) is 1 nM in assay [1], 1 nM in assay [2], 3 nM in assay [3] and under 1 nM in assay [4].
